Experimental data published in ChEMBL document CHEMBL1268921, “New pyridazinone derivatives with vasorelaxant and platelet antiaggregatory activities” (Bioorg Med Chem Lett, 2010).
Activity calls are given as the source filed them. The calls are words filed in the database; no cut-off is given here.

test system: Aorta; experiment: Vasorelaxant activity against noradrenaline-induced contraction in intact rat aortic rings; type: functional, tissue-based

SMILES | IC50
Cc1[nH]c(=O)c(C#N)cc1-c1ccncc1 [MILRINONE] | 0.122 µM
O=c1ccc(CCCOCc2ccccc2)nn1Cc1ccccc1 | 32.5 µM
O=c1ccc(CCO)nn1Cc1ccccc1 | > 100 µM
Cn1nc(CCCO)ccc1=O | > 100 µM
Cn1nc(CCO)ccc1=O | > 100 µM
Cn1nc(CO)ccc1=O | > 100 µM
CC(C)(C)[Si](OCCCc1ccc(=O)n(Cc2ccccc2)n1)(c1ccccc1)c1ccccc1 | 39.9 µM
CC(C)(C)[Si](OCCc1ccc(=O)[nH]n1)(c1ccccc1)c1ccccc1 | 56.2 µM
O=c1ccc(CCCO)n[nH]1 | > 100 µM
O=c1ccc(CCOCc2ccccc2)nn1Cc1ccccc1 | 32.3 µM
Cn1nc(CO[Si](c2ccccc2)(c2ccccc2)C(C)(C)C)ccc1=O | 58.4 µM
CC(C)(C)[Si](OCc1ccc(=O)[nH]n1)(c1ccccc1)c1ccccc1 | 62.6 µM
O=c1ccc(CCCO)nn1Cc1ccccc1 | > 100 µM
CC(C)(C)[Si](OCCc1ccc(=O)n(Cc2ccccc2)n1)(c1ccccc1)c1ccccc1 | > 100 µM
O=c1ccc(COCc2ccccc2)nn1Cc1ccccc1 | 35.3 µM
O=c1ccc(CO)nn1Cc1ccccc1 | > 100 µM
O=c1ccc(CO)n[nH]1 | > 100 µM
Cn1nc(CCCOCc2ccccc2)ccc1=O | 76.4 µM
Cn1nc(COCc2ccccc2)ccc1=O | > 100 µM
Cn1nc(CCO[Si](c2ccccc2)(c2ccccc2)C(C)(C)C)ccc1=O | 47 µM
Cn1nc(CCOCc2ccccc2)ccc1=O | > 100 µM
Cn1nc(CCCO[Si](c2ccccc2)(c2ccccc2)C(C)(C)C)ccc1=O | > 100 µM
O=c1ccc(CCO)n[nH]1 | > 100 µM
CC(C)(C)[Si](OCc1ccc(=O)n(Cc2ccccc2)n1)(c1ccccc1)c1ccccc1 | > 100 µM
CC(C)(C)[Si](OCCCc1ccc(=O)[nH]n1)(c1ccccc1)c1ccccc1 | 78.2 µM

test system: not listed separately; experiment: Antiplatelet activity against human platelet assessed as inhibition of collagen-induced platelet aggregation; type: functional, cell-based

SMILES | IC50
Cc1[nH]c(=O)c(C#N)cc1-c1ccncc1 [MILRINONE] | 38.5 µM
O=c1ccc(CCCOCc2ccccc2)nn1Cc1ccccc1 | 5.9 µM
O=c1ccc(CCO)nn1Cc1ccccc1 | > 100 µM
Cn1nc(CCCO)ccc1=O | > 100 µM
Cn1nc(CCO)ccc1=O | 60.4 µM
Cn1nc(CO)ccc1=O | 69.6 µM
CC(C)(C)[Si](OCCCc1ccc(=O)n(Cc2ccccc2)n1)(c1ccccc1)c1ccccc1 | 3.9 µM
CC(C)(C)[Si](OCCc1ccc(=O)[nH]n1)(c1ccccc1)c1ccccc1 | 3.87 µM
O=c1ccc(CCCO)n[nH]1 | > 100 µM
O=c1ccc(CCOCc2ccccc2)nn1Cc1ccccc1 | 4.11 µM
Cn1nc(CO[Si](c2ccccc2)(c2ccccc2)C(C)(C)C)ccc1=O | 4.55 µM
CC(C)(C)[Si](OCc1ccc(=O)[nH]n1)(c1ccccc1)c1ccccc1 | 1.8 µM
O=c1ccc(CCCO)nn1Cc1ccccc1 | 4.7 µM
CC(C)(C)[Si](OCCc1ccc(=O)n(Cc2ccccc2)n1)(c1ccccc1)c1ccccc1 | 4.8 µM
O=c1ccc(COCc2ccccc2)nn1Cc1ccccc1 | 8 µM
O=c1ccc(CO)nn1Cc1ccccc1 | > 100 µM
O=c1ccc(CO)n[nH]1 | > 100 µM
Cn1nc(CCCOCc2ccccc2)ccc1=O | 50.7 µM
Cn1nc(COCc2ccccc2)ccc1=O | > 100 µM
Cn1nc(CCO[Si](c2ccccc2)(c2ccccc2)C(C)(C)C)ccc1=O | 3.17 µM
Cn1nc(CCOCc2ccccc2)ccc1=O | > 100 µM
Cn1nc(CCCO[Si](c2ccccc2)(c2ccccc2)C(C)(C)C)ccc1=O | 2.34 µM
O=c1ccc(CCO)n[nH]1 | 64.3 µM
CC(C)(C)[Si](OCc1ccc(=O)n(Cc2ccccc2)n1)(c1ccccc1)c1ccccc1 | 4.6 µM
CC(C)(C)[Si](OCCCc1ccc(=O)[nH]n1)(c1ccccc1)c1ccccc1 | 2.13 µM

test system: Platelet; experiment: Antiplatelet activity against human platelet assessed as inhibition of thrombin-induced platelet aggregation at <100 uM; type: functional, cell-based

SMILES | Activity
O=c1ccc(CCCOCc2ccccc2)nn1Cc1ccccc1 | Active
O=c1ccc(CCO)nn1Cc1ccccc1 | Active
Cn1nc(CCCO)ccc1=O | Active
Cn1nc(CCO)ccc1=O | Active
Cn1nc(CO)ccc1=O | Active
CC(C)(C)[Si](OCCCc1ccc(=O)n(Cc2ccccc2)n1)(c1ccccc1)c1ccccc1 | Active
CC(C)(C)[Si](OCCc1ccc(=O)[nH]n1)(c1ccccc1)c1ccccc1 | Active
O=c1ccc(CCCO)n[nH]1 | Active
O=c1ccc(CCOCc2ccccc2)nn1Cc1ccccc1 | Active
Cn1nc(CO[Si](c2ccccc2)(c2ccccc2)C(C)(C)C)ccc1=O | Active
CC(C)(C)[Si](OCc1ccc(=O)[nH]n1)(c1ccccc1)c1ccccc1 | Active
O=c1ccc(CCCO)nn1Cc1ccccc1 | Active
CC(C)(C)[Si](OCCc1ccc(=O)n(Cc2ccccc2)n1)(c1ccccc1)c1ccccc1 | Active
O=c1ccc(COCc2ccccc2)nn1Cc1ccccc1 | Active
O=c1ccc(CO)nn1Cc1ccccc1 | Active
O=c1ccc(CO)n[nH]1 | Active
Cn1nc(CCCOCc2ccccc2)ccc1=O | Active
Cn1nc(COCc2ccccc2)ccc1=O | Active
Cn1nc(CCO[Si](c2ccccc2)(c2ccccc2)C(C)(C)C)ccc1=O | Active
Cn1nc(CCOCc2ccccc2)ccc1=O | Active
Cn1nc(CCCO[Si](c2ccccc2)(c2ccccc2)C(C)(C)C)ccc1=O | Active
O=c1ccc(CCO)n[nH]1 | Active
CC(C)(C)[Si](OCc1ccc(=O)n(Cc2ccccc2)n1)(c1ccccc1)c1ccccc1 | Active
CC(C)(C)[Si](OCCCc1ccc(=O)[nH]n1)(c1ccccc1)c1ccccc1 | Active

target: Prostaglandin G/H synthase 1 (Homo sapiens) (UniProt P23219); experiment: Inhibition of COX1
Sequence (P23219 whole entry): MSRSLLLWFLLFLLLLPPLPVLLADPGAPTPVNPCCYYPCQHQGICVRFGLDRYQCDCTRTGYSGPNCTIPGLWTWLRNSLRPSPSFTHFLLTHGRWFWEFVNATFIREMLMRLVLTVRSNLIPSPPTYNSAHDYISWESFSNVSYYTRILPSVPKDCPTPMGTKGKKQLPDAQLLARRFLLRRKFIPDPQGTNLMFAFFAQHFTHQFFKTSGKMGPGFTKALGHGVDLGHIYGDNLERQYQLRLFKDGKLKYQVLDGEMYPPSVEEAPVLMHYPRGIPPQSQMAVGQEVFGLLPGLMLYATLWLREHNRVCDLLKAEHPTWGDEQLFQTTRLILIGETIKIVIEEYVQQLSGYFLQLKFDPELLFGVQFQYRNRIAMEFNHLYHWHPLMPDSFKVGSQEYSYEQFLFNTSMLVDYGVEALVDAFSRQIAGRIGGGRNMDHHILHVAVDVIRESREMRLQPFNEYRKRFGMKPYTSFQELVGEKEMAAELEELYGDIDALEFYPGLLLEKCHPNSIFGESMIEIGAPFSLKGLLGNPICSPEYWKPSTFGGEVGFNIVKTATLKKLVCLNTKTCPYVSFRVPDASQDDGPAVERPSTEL

SMILES | inhibition
Cn1nc(CCO[Si](c2ccccc2)(c2ccccc2)C(C)(C)C)ccc1=O | Active
